According to patent US8912169B2, “Beta-lactamase inhibitors” (VenatoRx Pharmaceuticals, Inc., priority 2012, dated 2014):

Assays:
Format in all cases: biochemical
SHV-5 = target: T1, SHV-5 (Klebsiella pneumoniae, UniProt P0A3M1); assay: β-lactamase enzyme inhibition, SHV-5
T1 construct: made in house; host or cells: E. coli BL21(DE3)
Method in brief: (§1)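 Native untagged β-lactamases expressed in E. coli BL21(DE3) and purified, then pre-incubated with inhibitor 15 min at 37 °C. Hydrolysis was followed by absorbance: 100 μM nitrocefin at 486 nm for p99 AmpC and OXA-1; imipenem at 300 nm for KPC-2; cefotaxime at 260 nm for SHV-5. IC50 from initial-rate inhibition versus uninhibited controls.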

KPC-2 = target: T2, KPC-2 (Klebsiella pneumoniae, UniProt Q9F663); assay: β-lactamase enzyme inhibition, KPC-2; conditions: substrate imipenem, 300 nm; read-out: Class A KPC-2 IC50
T2 construct: made in house; host or cells: E. coli BL21(DE3)
Method in brief: as §1

VIM-2 = target: T3, VIM-2 (Escherichia coli, UniProt Q5U7L7); assay: β-lactamase enzyme inhibition, VIM-2; conditions: substrate Nitrocefin 100 μM, 486 nm; read-out: Class B VIM-2 IC50
T3 construct: made in house; host or cells: E. coli BL21(DE3)
Method in brief: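 Purified VIM-2 (Q sepharose, 50 mM Hepes pH 7.5, >90% purity) preincubated with inhibitor 15 min at 37° C, then nitrocefin added at 100 μM final. Hydrolysis followed at 486 nm for 10 min; IC50 from initial rates versus inhibitor-free control wells.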

p99 AmpC = target: T4, p99 AmpC (Enterobacter cloacae, UniProt P05364); assay: β-lactamase enzyme inhibition, p99 AmpC
T4 construct: made in house; host or cells: E. coli BL21(DE3)
Method in brief: as §1

OXA-1 = target: T5, OXA-1 (Escherichia coli, UniProt P13661); assay: β-lactamase enzyme inhibition, OXA-1; conditions: substrate Nitrocefin 100 μM, 486 nm; read-out: Class D OXA-1 IC50
T5 construct: made in house; host or cells: E. coli BL21(DE3)
Method in brief: as §1

Compound	IC50 (SHV-5) [nM]	IC50 (KPC-2) [nM]	IC50 (VIM-2) [nM]	IC50 (p99 AmpC) [nM]	IC50 (OXA-1) [nM]
NCCNC(=O)NCCN(C(=O)NCCN)C1CC(CC(=O)N[C@H]2Cc3cccc(C(=O)O)c3OB2O)C1 (stereo partly drawn) [Example 57, (R)-3-(2-(3-(3-(2-aminoethyl)-1-(2-(3-(2-aminoethyl)ureido)ethyl)ureido)cyclobutyl)acetamido)-2-hydroxy-3,4-dihydro-2H-benzo[e][1,2]oxaborinine-8-carboxylic acid]	< 100	< 100	100 to 1000	< 100	< 100
NCCNC(=O)NC1CC(CC(=O)N[C@H]2Cc3cccc(C(=O)O)c3OB2O)C1 (stereo partly drawn) [Example 58, (R)-3-(2-(3-(3-(2-aminoethyl)ureido)cyclobutyl)acetamido)-2-hydroxy-3,4-dihydro-2H-benzo[e][1,2]oxaborinine-8-carboxylic acid]	< 100	< 100	100 to 1000	< 100	< 100
NCCNC(=O)N[C@H]1CC[C@H](CC(=O)N[C@H]2Cc3cccc(C(=O)O)c3OB2O)CC1 [Example 59, (R)-3-(2-(trans-4-(3-(2-aminoethyl)ureido)cyclohexyl)acetamido)-2-hydroxy-3,4-dihydro-2H-benzo[e][1,2]oxaborinine-8-carboxylic acid]	< 100	< 100	100 to 1000	< 100	< 100
NCCCN[C@H]1CC[C@H](CC(=O)N[C@H]2Cc3cccc(C(=O)O)c3OB2O)CC1 [Example 60, (R)-3-(2-(trans-4-(3-aminopropylamino)cyclohexyl)acetamido)-2-hydroxy-3,4-dihydro-2H-benzo[e][1,2]oxaborinine-8-carboxylic acid]	< 100	< 100	< 100	< 100	< 100
O=C(C[C@H]1CC[C@H](NCCNCCO)CC1)N[C@H]1Cc2cccc(C(=O)O)c2OB1O [Example 61, (R)-2-hydroxy-3-(2-(trans-4-(2-(2-hydroxyethylamino)ethylamino)cyclohexyl)acetamido)-3,4-dihydro-2H-benzo[e][1,2]oxaborinine-8-carboxylic acid]	< 100	< 100	< 100	< 100	< 100
C[C@H](N)CNCCN[C@H]1CC[C@H](CC(=O)N[C@H]2Cc3cccc(C(=O)O)c3OB2O)CC1 [Example 62, (R)-3-(2-(trans-4-(2-((S)-2-aminopropylamino)ethylamino)cyclohexyl)acetamido)-2-hydroxy-3,4-dihydro-2H-benzo[e][1,2]oxaborinine-8-carboxylic acid]	< 100	< 100	< 100	< 100	< 100
CN(CCN)[C@H]1CC[C@H](CC(=O)N[C@H]2Cc3cccc(C(=O)O)c3OB2O)CC1 [Example 63, (R)-3-(2-(trans-4-((2-aminoethyl)(methyl)amino)cyclohexyl)acetamido)-2-hydroxy-3,4-dihydro-2H-benzo[e][1,2]oxaborinine-8-carboxylic acid]	< 100	< 100	< 100	< 100	< 100
CNCCN[C@H]1CC[C@H](C(CO)C(=O)N[C@H]2Cc3cccc(C(=O)O)c3OB2O)CC1 (stereo partly drawn) [Example 64, (R)-2-hydroxy-3-(3-hydroxy-2-(trans-4-(2-(methylamino)ethylamino)cyclohexyl)propanamido)-3,4-dihydro-2H-benzo[e][1,2]oxaborinine-8-carboxylic acid]	< 100	100 to 1000	< 100	< 100	< 100
N[C@@H](CO)CN[C@H]1CC[C@H](CC(=O)N[C@H]2Cc3cccc(C(=O)O)c3OB2O)CC1 [Example 65, (R)-3-(2-(trans-4-((R)-2-amino-3-hydroxypropylamino)cyclohexyl)acetamido)-2-hydroxy-3,4-dihydro-2H-benzo[e][1,2]oxaborinine-8-carboxylic acid]	< 100	< 100	< 100	< 100	< 100
CSCCN[C@H]1CC[C@H](CC(=O)N[C@H]2Cc3cccc(C(=O)O)c3OB2O)CC1 [Example 66, (R)-2-hydroxy-3-(2-(trans-4-(2-(methylthio)ethylamino)cyclohexyl)acetamido)-3,4-dihydro-2H-benzo[e][1,2]oxaborinine-8-carboxylic acid]	< 100	< 100	1000 to 10000	< 100	< 100
N[C@H](CO)CN[C@H]1CC[C@H](CC(=O)N[C@H]2Cc3cccc(C(=O)O)c3OB2O)CC1 [Example 67, (R)-3-(2-(trans-4-((S)-2-amino-3-hydroxypropylamino)cyclohexyl)acetamido)-2-hydroxy-3,4-dihydro-2H-benzo[e][1,2]oxaborinine-8-carboxylic acid]	< 100	< 100	100 to 1000	< 100	< 100
NCC(=O)N[C@H]1CC[C@H](CC(=O)N[C@H]2Cc3cccc(C(=O)O)c3OB2O)CC1 [Example 68, (R)-3-(2-(trans-4-(2-aminoacetamido)cyclohexyl)acetamido)-2-hydroxy-3,4-dihydro-2H-benzo[e][1,2]oxaborinine-8-carboxylic acid]	< 100	< 100	100 to 1000	< 100	< 100
O=C(C[C@H]1CC[C@H](N(Cc2ncc[nH]2)Cc2ncc[nH]2)CC1)N[C@H]1Cc2cccc(C(=O)O)c2OB1O [Example 69, (R)-3-(2-(trans-4-(bis((1H-imidazol-2-yl)methyl)amino)cyclohexyl)acetamido)-2-hydroxy-3,4-dihydro-2H-benzo[e][1,2]oxaborinine-8-carboxylic acid]	< 100	< 100	< 100	< 100	< 100
O=C(C[C@H]1CC[C@H](NCc2cnc[nH]2)CC1)N[C@H]1Cc2cccc(C(=O)O)c2OB1O [Example 70, (R)-3-(2-(trans-4-((1H-imidazol-5-yl)methylamino)cyclohexyl)acetamido)-2-hydroxy-3,4-dihydro-2H-benzo[e][1,2]oxaborinine-8-carboxylic acid]	< 100	< 100	100 to 1000	< 100	< 100
CC(C)NCCN[C@H]1CC[C@H](CC(=O)N[C@H]2Cc3cccc(C(=O)O)c3OB2O)CC1 [Example 71, (R)-2-hydroxy-3-(2-(trans-4-(2-(isopropylamino)ethylamino)cyclohexyl)acetamido)-3,4-dihydro-2H-benzo[e][1,2]oxaborinine-8-carboxylic acid]	< 100	< 100	< 100	< 100	< 100
O=C(C[C@H]1CC[C@H](NCCNc2ncccn2)CC1)N[C@H]1Cc2cccc(C(=O)O)c2OB1O [Example 72]	< 100	< 100	100 to 1000	< 100	< 100
O=C(C[C@H]1CC[C@H](NCCNC2CCCC2)CC1)N[C@H]1Cc2cccc(C(=O)O)c2OB1O [Example 73, (R)-3-(2-(trans-4-(2-(cyclopentylamino)ethylamino)cyclohexyl)acetamido)-2-hydroxy-3,4-dihydro-2H-benzo[e][1,2]oxaborinine-8-carboxylic acid]	< 100	< 100	< 100	< 100	< 100
O=C(C[C@H]1CC[C@H](NCCNCC2CC2)CC1)N[C@H]1Cc2cccc(C(=O)O)c2OB1O [Example 74, (R)-3-(2-(trans-4-(2-(cyclopropylmethylamino)ethylamino)cyclohexyl)acetamido)-2-hydroxy-3,4-dihydro-2H-benzo[e][1,2]oxaborinine-8-carboxylic acid]	< 100	< 100	< 100	< 100	< 100
O=C(C[C@H]1CC[C@H](NCCN(CC2CC2)CC2CC2)CC1)N[C@H]1Cc2cccc(C(=O)O)c2OB1O [Example 75, (R)-3-(2-(trans-4-(2-(bis(cyclopropylmethyl)amino)ethylamino)cyclohexyl)acetamido)-2-hydroxy-3,4-dihydro-2H-benzo[e][1,2]oxaborinine-8-carboxylic acid]	< 100	< 100	< 100	< 100	< 100
NCCC(N)[C@H]1CC[C@H](CC(=O)N[C@H]2Cc3cccc(C(=O)O)c3OB2O)CC1 (stereo partly drawn) [Example 76, (R)-3-(2-(trans-4-(1,3-diaminopropyl)cyclohexyl)acetamido)-2-hydroxy-3,4-dihydro-2H-benzo[e][1,2]oxaborinine-8-carboxylic acid]	< 100	< 100	< 100	< 100	< 100
NCC(N)[C@H]1CC[C@H](CC(=O)N[C@H]2Cc3cccc(C(=O)O)c3OB2O)CC1 (stereo partly drawn) [Example 77, (R)-3-(2-(trans-4-(1,2-diaminoethyl)cyclohexyl)acetamido)-2-hydroxy-3,4-dihydro-2H-benzo[e][1,2]oxaborinine-8-carboxylic acid]	< 100	100 to 1000	100 to 1000	< 100	< 100
